Measured values reported in patent US20030109550A1, “Substituted indazole compounds for the treatment of inflammation” (priority 2001, published 2003).

What was measured:
[1] = biological target: T1, IKK heterodimer (rhIKK1/IKK2 heterodimer) (Homo sapiens, UniProt O14920+O15111); test: IKK heterodimer Resin Enzyme Assay; assay type: biochemical; details: biotinylated IκBα peptide 5 μM, 1 μM ATP, 25° C., 30 min; read-out: HetD (IKK heterodimer Resin Enzyme Assay expressed as IC50)
T1 construct: made in house; host or cells: insect cells (baculovirus coinfection; SF9 cell paste)
T1 sequence (O15111 1-745): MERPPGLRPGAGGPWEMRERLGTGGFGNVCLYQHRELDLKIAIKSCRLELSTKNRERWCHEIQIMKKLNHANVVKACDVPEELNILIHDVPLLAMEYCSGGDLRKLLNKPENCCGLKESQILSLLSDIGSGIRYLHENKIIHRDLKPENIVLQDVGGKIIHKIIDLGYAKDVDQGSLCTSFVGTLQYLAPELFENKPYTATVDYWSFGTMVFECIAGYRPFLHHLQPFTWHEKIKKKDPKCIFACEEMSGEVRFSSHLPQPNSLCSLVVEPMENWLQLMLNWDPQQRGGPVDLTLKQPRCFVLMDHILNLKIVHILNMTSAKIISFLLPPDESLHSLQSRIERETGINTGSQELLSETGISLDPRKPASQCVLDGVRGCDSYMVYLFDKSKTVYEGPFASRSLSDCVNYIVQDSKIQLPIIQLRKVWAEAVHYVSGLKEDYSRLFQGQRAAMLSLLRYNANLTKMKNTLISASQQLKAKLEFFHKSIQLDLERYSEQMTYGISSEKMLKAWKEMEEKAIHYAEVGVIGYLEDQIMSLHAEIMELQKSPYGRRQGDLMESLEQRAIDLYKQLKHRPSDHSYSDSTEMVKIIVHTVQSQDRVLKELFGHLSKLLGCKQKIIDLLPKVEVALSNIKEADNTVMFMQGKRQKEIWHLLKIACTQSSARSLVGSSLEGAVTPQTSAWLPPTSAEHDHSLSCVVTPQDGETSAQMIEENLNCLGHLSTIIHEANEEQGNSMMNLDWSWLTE
T1 sequence (O14920 1-756): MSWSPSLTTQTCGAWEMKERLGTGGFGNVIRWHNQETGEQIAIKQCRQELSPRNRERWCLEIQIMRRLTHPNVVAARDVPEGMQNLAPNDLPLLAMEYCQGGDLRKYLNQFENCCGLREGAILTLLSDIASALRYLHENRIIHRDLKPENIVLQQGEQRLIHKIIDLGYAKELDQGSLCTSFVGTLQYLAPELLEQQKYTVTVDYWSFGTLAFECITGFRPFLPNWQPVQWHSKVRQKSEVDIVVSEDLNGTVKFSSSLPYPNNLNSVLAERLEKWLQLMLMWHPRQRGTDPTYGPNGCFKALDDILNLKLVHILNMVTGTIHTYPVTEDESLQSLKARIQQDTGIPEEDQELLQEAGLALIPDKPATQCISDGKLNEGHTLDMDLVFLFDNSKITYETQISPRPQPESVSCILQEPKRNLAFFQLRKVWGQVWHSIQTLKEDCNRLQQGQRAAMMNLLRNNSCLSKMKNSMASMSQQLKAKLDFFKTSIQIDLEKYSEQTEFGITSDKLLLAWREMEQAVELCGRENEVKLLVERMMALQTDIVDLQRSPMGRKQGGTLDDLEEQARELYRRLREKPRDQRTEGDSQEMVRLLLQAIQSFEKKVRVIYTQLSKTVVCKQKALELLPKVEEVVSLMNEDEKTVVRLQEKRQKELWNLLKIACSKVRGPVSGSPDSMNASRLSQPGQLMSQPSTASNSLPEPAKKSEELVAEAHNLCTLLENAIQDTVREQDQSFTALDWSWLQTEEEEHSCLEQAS
Source text: cDNAs of human IKK1 and IKK2 were amplified by reverse transcriptase-polymerase chain reaction from human placental RNA (Clonetech). hIKK1 was subcloned into pFastBac HTa (Life Technologies) and expressed as N-terminal His6-tagged fusion protein. The hIKK2 cDNA was amplified using a reverse oligonucleotide primer which incorporated the peptide sequence for a FLAG-epitope tag at the C-terminus of the IKK2 coding region (DYKDDDDKD). The hIKK2:FLAG cDNA was subcloned into the baculovirus vector pFastBac. The rhIKK2 ([…]) mutant was constructed in the same vector used for wild type rhIKK2 using a QuikChange™ mutagenesis kit (Stratagene) Viral stocks of each construct were used to infect insect cells grown in 40L suspension culture. […] Cell lysates were stored at −80° C. until purification of the recombinant proteins was undertaken as described in the succeeding sections.
Isolation of rhIKK1/IKK2 Heterodimer
The heterodimer enzyme was produced by coinfection in a baculovirus system (FLAG IKK2/IKK1 His; MOI=0.1 and I=72 hrs). Infected cells were centrifuged and the cell pellet (10.0 g) was suspended in 50 ml of buffer A. The protein suspension was microfluidized and centrifuged at 100,000×g for 45 min. Imidazole was added to the supernatant to a final concentration of 10 mM. The protein was allowed to bind 25 ml of Ni-NTA resin by mixing for 2 hrs. The protein-resin slurry was poured into a 25 ml column and washed with 250 ml of buffer A containing 10 mM imidazole followed by 125 ml of buffer A containing 50 mM imidazole. Buffer A, containing 300 mM imidazole, was then used to elute the protein. A 75 ml pool was collected and NP-40 was added to a final concentration of 0.1%. The protein solution was then dialyzed against buffer B. The dialyzed heterodimer enzyme was then allowed to bind to 25 ml of anti-FLAG M2 agarose affinity gel overnight with constant mixing. The protein-resin slurry was then centrifuged for 5 min at 2,000 rpm. The supernatant was collected and the resin re-suspended in 100 ml of buffer C containing 0.1% NP-40. The resin was washed with 375 ml of buffer C containing 0.1% NP-40. The protein-resin was poured into a 25 ml column and the enzyme eluted using buffer B containing FLAG peptide. Enzyme fractions (100 ml) were collected and concentrated to 20 ml using an Amicon membrane with molecular weight cut-off of 30 kDa. Bovine serum albumin was added to the concentrated enzyme to final concentration of 0.1%. The enzyme was then aliquoted and stored at −80° C.
IKK heterodimer Resin Enzyme Assay
IKK heterodimer kinase activity was measured using a biotinylated IκBα peptide (Gly-Leu-Lys-Lys-Glu-Arg-Leu-Leu-Asp-Asp-Arg-His-Asp-Ser32-Gly-Leu-Asp-Ser36-Met-Lys-Asp-Glu-Glu) (American Peptide Co.). […] ATP was measured using a Top-Count NXT (Packard).

| SMILES | IC50 [1] | melting point |
| --- | --- | --- |
| COc1ccc(-c2ccc3c(C(N)=O)nn(-c4ccc(S(N)(=O)=O)cc4)c3c2)cc1 [Example 1, 1-[4-(aminosulfonyl)phenyl]-6-(4-methoxyphenyl)-1H-indazole-3-carboxamide] | > 100 µM | 258 to 259 °C |
| CC(C)(C)c1ccc(-c2ccc3c(C(N)=O)nn(-c4ccc(S(N)(=O)=O)cc4)c3c2)cc1 [Example 4, 1-[4-(aminosulfonyl)phenyl]-6-(4-tert-butylphenyl)-1H-indazole-3-carboxamide] | > 100 µM | 262 to 263 °C |
| CN(C)c1cccc(-c2ccc3c(C(N)=O)nn(-c4ccc(S(N)(=O)=O)cc4)c3c2)c1 [Example 6, 1-[4-(aminosulfonyl)phenyl]-6-[3-(dimethylamino)phenyl]-1H-indazole-3-carboxamide] | > 100 µM | 237 to 238 °C |
| NC(=O)c1nn(-c2ccc(S(N)(=O)=O)cc2)c2ccncc12 [Example 8, 1-[4-(aminosulfonyl)phenyl]-1H-pyrazolo[4,3-c]pyridine-3-carboxamide] | – | 301 to 302 °C |
| Cc1ccc2c(C(N)=O)nn(-c3ccc(S(N)(=O)=O)cc3)c2c1 [Example 9, 1-[4-(aminosufony)phenyl]-6-methyl-1H-indazole-3-carboxamide] | – | 251 to 252 °C |
| NC(=O)c1nn(-c2ccc(S(N)(=O)=O)cc2)c2cc(-c3ccccc3)ccc12 [Example 10, 1-[4-(aminosulfonyl)phenyl]-6-phenyl-1H-indazole-3-carboxamide] | – | 232 to 234 °C |
| NC(=O)c1nn(-c2ccc(S(N)(=O)=O)cc2)c2cc(Cc3ccccc3)ccc12 [Example 12, 1-[4-(aminosulfonyl)phenyl]-6-benzyl-1H-indazole-3-carboxamide] | – | 207 to 209 °C |
| CCOc1ccc2c(C(N)=O)nn(-c3ccc(S(N)(=O)=O)cc3)c2c1 [Example 13, 1-[4-(aminosulfonyl)phenyl]-6-ethoxy-1H-indazole-3-carboxamide] | – | 213 to 214 °C |
| CCc1ccc2c(C(N)=O)nn(-c3ccc(S(N)(=O)=O)cc3)c2c1 [Example 14, 1-[4-(aminosulfonyl)phenyl]-6-ethyl-1H-indazole-3-carboxamide] | – | 249 to 251 °C |
| NC(=O)c1nn(-c2ccc(S(N)(=O)=O)cc2)c2cc(-c3cccnc3)ccc12 [Example 15, 1-[4-(aminosulfonyl)phenyl]-6-pyridin-3-yl-1H-indazole-3-carboxamide] | – | 310 to 313 °C |

Continued, values first:

| IC50 [1] | melting point | SMILES |
| --- | --- | --- |
| – | 314 to 315 °C | NC(=O)c1nn(-c2ccc(S(N)(=O)=O)cc2)c2cc(-c3ccc(F)cc3)ccc12 [Example 2, 1-[4-(aminosulfonyl)phenyl]-6-(4-fluorophenyl)-1H-indazole-3-carboxamide] |
| – | 261 to 263 °C | Cc1cccc(-c2ccc3c(C(N)=O)nn(-c4ccc(S(N)(=O)=O)cc4)c3c2)c1 [Example 3, 1-[4-(aminosulfonyl)phenyl]-6-(3-methylphenyl)-1H-indazole-3-carboxamide] |
| – | 300 to 302 °C | Cc1cc(-c2ccc3c(C(N)=O)nn(-c4ccc(S(N)(=O)=O)cc4)c3c2)ccc1F [Example 5, 1-[4-(aminosulfonyl)phenyl]-6-(4-fluoro-3-methylphenyl)-1H-indazole-3-carboxamide] |
| – | 159 to 160 °C | CNc1cccc(-c2ccc3c(C(N)=O)nn(-c4ccc(S(N)(=O)=O)cc4)c3c2)c1 [Example 7, 1-[4-(aminosulfonyl)phenyl]-6-[3-(methylamino)phenyl]-1H-indazole-3-carboxamide] |
| 1 µM | 229 to 230 °C | COc1cccc(-c2ccc3c(C(N)=O)nn(-c4ccc(S(N)(=O)=O)cc4)c3c2)c1 [Example 11, 1-[4-(aminosulfonyl)phenyl]-6-(3-methoxyphenyl)-1H-indazole-3-carboxamide] |
